Data taken from paper PMC11371739, “Ginkgolic Acid as a carbapenem synergist against KPC-2 positive Klebsiella pneumoniae” (Frontiers in Microbiology, 2024).

Molecular target: T1, KPC-2 (Klebsiella pneumoniae carbapenemase-2) (Klebsiella pneumoniae, UniProt Q9F663)
T1 construct: purified KPC-2 expressed in E. coli BL21(DE3) (pET28a-KPC-2)
Assay: nitrocefin hydrolysis inhibition assay with purified KPC-2; supported by CD, FTIR and site-directed mutagenesis
Format: biochemical

T1 sequence (Q9F663 25-293 limits assumed): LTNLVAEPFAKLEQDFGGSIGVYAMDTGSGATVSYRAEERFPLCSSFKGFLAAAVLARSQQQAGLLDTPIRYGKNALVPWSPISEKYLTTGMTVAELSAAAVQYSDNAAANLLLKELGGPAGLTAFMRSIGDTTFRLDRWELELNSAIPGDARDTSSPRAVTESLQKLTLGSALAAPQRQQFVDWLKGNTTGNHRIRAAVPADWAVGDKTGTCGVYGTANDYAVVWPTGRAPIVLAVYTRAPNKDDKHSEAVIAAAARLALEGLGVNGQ

With `CCCCCCCCCCCCCc1cccc(O)c1C(=O)O` [GA, Ginkgolic Acid (C13:0)] the IC50 was 14.8 µM.
